Assay results as given in patent publication US8952054B2, “Small molecule inhibitors of MUC1 and methods of identifying the same” (Dana-Farber Cancer Institute, Inc., priority 2010, dated 2015).
Entries after “also recorded” stand apart in the source; their conditions may differ.

Key:
[1] = biological target: T1, His-MUC1-CD (Homo sapiens, UniProt P15941); experiment: In-gel in vitro MUC1-CD dimerization/oligomerization assay (non-reducing SDS-PAGE, anti-MUC1-C immunoblot); type: biochemical; conditions: 1 h at room temperature; for formation of MUC1-CD dimers, soluble protein: 1 mM compound
T1 construct: made in house
T1 sequence (P15941 1184-1255): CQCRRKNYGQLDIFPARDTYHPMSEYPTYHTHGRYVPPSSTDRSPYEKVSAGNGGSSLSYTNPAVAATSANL
Experimental: (§1) FIGS. 1A-D. MUC1/CQC peptide blocks MUC1 oligomerization. (FIG. 1A) Schematic representation of the MUC1-C subunit and the 72-amino acid sequence of MUC1-CD (SEQ ID NO: 1) are shown. The N-terminal 15 amino acids (shaded sequence) MUC1/CQC (SEQ ID NO: 10) and mutated MUC1/AQA (SEQ ID NO: 11) peptides were synthesized with the poly-dArg transduction domain. (FIG. 1B) His-MUC1-CD (1.4 mg/ml) was immobilized on a sensor chip in a BIAcore. MUC1/CQC was injected over the chip at 10 μM. Raw binding data were analyzed by BIAevaluation software version 3.0 and fit to a 1:1 Languir binding model. (FIG. 1C) Purified His-MUC1-CD (1.5 mg/ml) was incubated with PBS, 200 μM MUC1/CQC or 200 μM MUC1/AQA for 1 h at room temperature. The proteins were separated in a non-reducing SDS-polyacrylamide gel and analyzed by immunoblotting with anti-MUC1-C. (FIG. 1D) 293 cells were transiently transfected to express an empty vector or GFP-MUC1-CD and Flag-MUC1-CD. At 48 h after transfection, the cells were treated with 5 μM MUC1/CQC or MUC1/AQA for 3 d. The cells were then harvested for immunoblotting with anti-MUC1-C (left panel). Whole cell lysates were also precipitated with anti-Flag and the precipitates were immunoblotted with the indicated antibodies (right panels).
FIG. 7—GO-201 blocks MUC1 oligomerization. Purified His-MUC1-CD was incubated with PBS (control), GO-201, or CP-1 for 1 hr at room temperature. The proteins were separated in a non-reducing SDS-polyacrylamide gel (SDS-PAGE) and analyzed by immunoblotting with anti-MUC1-C antibodies. The formation of dimers and tetramers was inhibited by incubation with GO-201.
FIGS. 12A-D—Apigenin is an inhibitor of MUC1-CD dimerization in vitro and in cells. (FIG. 12A) Structures of apigenin and its analogue baicalein. Using the in vitro screening assay, dimerization of MUC1-CD was assessed in the presence of 100 μM apigenin or 100 μM baicalein each dissolved in 0.1% DMSO. The results (mean±SD of 3 determinations) are expressed as percentage of control dimerization in the presence of DMSO alone. (FIG. 12B) MUC1-CD dimerization was assessed in the presence of the indicated concentrations of apigenin in the in vitro screening assay. […] (FIG. 12C) Soluble MUC1-CD was incubated in the presence of 1% DMSO, 1 mM apigenin or 1 mM baicalein for 1 h at room temperature. Monomers and dimmers were assessed by electrophoresis in a non-reducing gel and immunoblotting with anti-MUC1-C. (FIG. 12D) 293 cells were transiently transfected to express an empty vector or GFP-MUC1-CD and Flag-MUC1-CD. […]
(§2) Purified His-tagged MUC1-CD protein also forms dimers and oligomers when incubated in a buffer in vitro, and these can be detected by electrophoresis in polyacrylamide gels. […] Following extensive washings, the proteins are separated in a non-reducing SDS-polyacrylamide gel and analyzed by immunoblotting with anti-MUC1-CD antibody.
As a positive control for validation of this assay for secondary screening, purified His-MUC1-CD is incubated with either PBS or with GO-201 (CQC peptide) for 1 hr at room temperature. The proteins are separated in a non-reducing SDS-polyacrylamide gel and analyzed by immunoblotting with anti-MUC1-CD antibody.
as §2, with “protein” for “protein also”, “as” for “and these can be”, “antibody. […]” for “antibody.”

[2] = biological target: T2, GFP-MUC1-CD and Flag-MUC1-CD (Homo sapiens, UniProt P15941); experiment: Inhibition of dimerization of MUC1-CD in cyto (coprecipitation in transfected 293 cells); type: cell-based; conditions: for formation of MUC1-CD dimers (anti-Flag precipitates, anti-GFP blot): 75 μM for 3 days
T2 construct: expressed in transfected cells; host or cells: HEK 293 cells (no endogenous MUC1)
T2 sequence (P15941 1184-1255 limits assumed): T1 sequence (P15941 1184-1255)
Experimental: as §1
FIG. 8—293 cells transiently transfected to express an empty vector or GFP-MUC1-CD and Flag-MUC1-CD. At 48 he after transfection, cells were left untreated (control), or treated with 5 μmol/L GO-201 or CP-1 each day for 3 days. The cells were then harvested for immunoblotting with anti-MUC1-C (left). Whole-cell lysates were also precipitated with anti-Flag and the precipitates were immunoblotted with the indicated antibodies (right).
FIGS. 12A-D—Apigenin is an inhibitor of MUC1-CD dimerization in vitro and in cells. (FIG. 12A) Structures of apigenin and its analogue baicalein. Using the in vitro screening assay, dimerization of MUC1-CD was assessed in the presence of 100 μM apigenin or 100 μM baicalein each dissolved in 0.1% DMSO. The results (mean±SD of 3 determinations) are expressed as percentage of control dimerization in the presence of DMSO alone. (FIG. 12B) MUC1-CD dimerization was assessed in the presence of the indicated concentrations of apigenin in the in vitro screening assay. […] (FIG. 12C) Soluble MUC1-CD was incubated in the presence of 1% DMSO, 1 mM apigenin or 1 mM baicalein for 1 h at room temperature. Monomers and dimmers were assessed by electrophoresis in a non-reducing gel and immunoblotting with anti-MUC1-C. (FIG. 12D) 293 cells were transiently transfected to express an empty vector or GFP-MUC1-CD and Flag-MUC1-CD. At six hours after transfection, the cells were left untreated, and treated with 75 μM apigenin or baicalein for 3 days. Whole-cell lysates were precipitated with anti-Flag, and the precipitates were immunoblotted with the indicated antibodies.
Two different versions of MUC1-CD vectors have been generated for transformation of cells: GFP-MUC1-CD and Flag-MUC1-CD. […] At 48 hr post-transfection, cells are incubated with the selected compounds from the primary and/or secondary screening assays. Cells are then harvested and used for immunoblotting with anti-MUC1-C. Total cell lysates are subjected to immunoprecipitation with anti-GFP antibody and the adsorbates are analyzed by immunoblotting with anti-Flag antibody.
293 cells were transfected with vectors expressing GFP, GFP-MUC1-CD or Flag-MUC1-CD in the presence of Lipofectamine as described (Leng et al., 2007).
The inventors generated two different versions of MUC1-CD vectors for transfecting into cells: GFP-MUC1-CD and Flag-MUC1-CD. […] At 48 hours post-transfection, cells are incubated with selected compounds. The cells were harvested for immunoblotting with anti-MUC1-C. Total cell lysates are subjected to immunoprecipitation with anti-GFP antibody and the adsorbates are analyzed by immunoblotting with anti-Flag antibody. An inhibitor of MUC1-CD dimerization will inhibit dimerization of MUC1-CD in cyto. […]

[3] = transfected 293 cells, 5 μM peptide for 3 d

Compound | formation of MUC1-CD dimers, soluble protein [1] | formation of MUC1-CD dimers (anti-Flag precipitates, anti-GFP blot) ([2]; transfected 293 cells) | His-MUC1-CD oligomer formation ([1]; 200 μM peptide) | His-MUC1-CD oligomer formation ([1]; GO-201 positive control) | interaction between Flag-MUC1-CD and GFP-MUC1-CD [2, 3] | interaction between Flag-MUC1-CD and GFP-MUC1-CD ([2]; transfected HEK 293 cells, 5 μM GO-201 or CP-1 each day for 3 days) | interaction between Flag-MUC1-CD and GFP-MUC1-CD ([2]; transfected HEK 293 cells, 5 mM GO-201 as printed)
O=c1cc(-c2ccc(O)cc2)oc2cc(O)cc(O)c12 [Apigenin, 4′,5,7-trihydroxyflavone] | completely blocked | completely blocked |  |  |  |  | 
O=c1cc(-c2ccccc2)oc2cc(O)c(O)c(O)c12 [Baicalein, 5,6,7-trihydroxyflavone, reference compound] | little effect | not |  |  |  |  | 
CC[C@H](C)[C@H](NC(=O)[C@H](CC(=O)O)NC(=O)[C@H](CC(C)C)NC(=O)[C@H](CCC(N)=O)NC(=O)CNC(=O)[C@H](Cc1ccc(O)cc1)NC(=O)[C@H](CC(N)=O)NC(=O)[C@H](CCCCN)NC(=O)[C@H](CCCNC(=N)N)NC(=O)[C@H](CCCNC(=N)N)NC(=O)[C@H](CS)NC(=O)[C@H](CCC(N)=O)NC(=O)[C@H](CS)NC(=O)[C@@H](CCCNC(=N)N)NC(=O)[C@@H](CCCNC(=N)N)NC(=O)[C@@H](CCCNC(=N)N)NC(=O)[C@@H](CCCNC(=N)N)NC(=O)[C@@H](CCCNC(=N)N)NC(=O)[C@@H](CCCNC(=N)N)NC(=O)[C@@H](CCCNC(=N)N)NC(=O)[C@@H](CCCNC(=N)N)NC(=O)[C@H](N)CCCNC(=N)N)C(=O)N[C@@H](Cc1ccccc1)C(=O)N1CCC[C@H]1C(=O)O [MUC1/CQC] |  |  | substantially decreased oligomer formation | substantially decreases oligomer formation; also recorded: inhibited | disruption of the interaction | disruption of the interaction | disruption of the interaction
MUC1/AQA: control peptide in which the CQC motif was altered to AQA (SEQ ID NO: 11) (AQARRKNYGQLDIFP) [reference compound] |  |  | little if any effect |  | no apparent effect |  | 
